In patent US10870647B2, “Imidazopyridine derivative, method for preparing same, and pharmaceutical composition containing same as active ingredient for preventing or treating cancer” (DAEGU-GYEONGBUK MEDICAL INNOVATION FOUNDATION, priority 2016, dated 2020):

How the values were obtained:
Experiment in all cases: Kinase selectivity, scanMAX Kinase assay panel (DiscoverX), % control at 1 uM
Type in all cases: binding
[1] = target: T1, scanMAX Kinase assay panel (Homo sapiens, UniProt Q5S007, G2019S); conditions: LRRK2 (G2019S); 1 uM; read-out: Percent Control (%)
T1 construct: purchased DiscoverX
Method in brief: (§1)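 A single concentration of 1 uM, in DMSO, is applied across the kinase panel. Activity against an individual enzyme is assigned where % control is less than 35.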

[2] = target: T2, scanMAX Kinase assay panel (Homo sapiens, UniProt Q9Y2H9); conditions: MAST1; 1 uM; read-out: Percent Control (%)
T2 construct: purchased DiscoverX
Method in brief: as §1

[3] = target: T3, scanMAX Kinase assay panel (Homo sapiens, UniProt Q13976); conditions: PRKG1; 1 uM; read-out: Percent Control (%)
T3 construct: purchased DiscoverX
T3 sequence (Q13976 1-671): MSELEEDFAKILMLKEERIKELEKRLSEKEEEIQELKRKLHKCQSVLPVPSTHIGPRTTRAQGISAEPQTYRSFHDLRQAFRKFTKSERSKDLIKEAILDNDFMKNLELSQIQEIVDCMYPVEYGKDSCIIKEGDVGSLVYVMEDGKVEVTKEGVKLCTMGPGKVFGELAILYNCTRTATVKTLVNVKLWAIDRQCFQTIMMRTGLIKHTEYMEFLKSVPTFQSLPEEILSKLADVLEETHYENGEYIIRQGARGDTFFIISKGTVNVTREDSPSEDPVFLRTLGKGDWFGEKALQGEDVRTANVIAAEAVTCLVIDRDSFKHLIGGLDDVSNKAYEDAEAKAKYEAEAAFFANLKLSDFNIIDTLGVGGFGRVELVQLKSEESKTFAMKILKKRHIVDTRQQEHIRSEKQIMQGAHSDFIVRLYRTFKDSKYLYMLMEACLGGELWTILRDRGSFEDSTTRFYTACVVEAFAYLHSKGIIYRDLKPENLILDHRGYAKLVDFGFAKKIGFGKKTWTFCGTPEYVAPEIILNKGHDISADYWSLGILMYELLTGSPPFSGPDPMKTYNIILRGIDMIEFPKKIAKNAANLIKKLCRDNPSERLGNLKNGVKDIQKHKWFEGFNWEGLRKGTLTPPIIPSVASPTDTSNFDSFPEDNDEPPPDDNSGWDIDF
Method in brief: as §1

[4] = target: T4, scanMAX Kinase assay panel (Homo sapiens, UniProt P68400); conditions: CSNK2A1; 1 uM; read-out: Percent Control (%)
T4 construct: purchased DiscoverX
Method in brief: as §1

[5] = target: T5, scanMAX Kinase assay panel (Homo sapiens, UniProt Q9BZL6); conditions: PRKD2; 1 uM; read-out: Percent Control (%)
T5 construct: purchased DiscoverX
T5 sequence (Q9BZL6 1-878): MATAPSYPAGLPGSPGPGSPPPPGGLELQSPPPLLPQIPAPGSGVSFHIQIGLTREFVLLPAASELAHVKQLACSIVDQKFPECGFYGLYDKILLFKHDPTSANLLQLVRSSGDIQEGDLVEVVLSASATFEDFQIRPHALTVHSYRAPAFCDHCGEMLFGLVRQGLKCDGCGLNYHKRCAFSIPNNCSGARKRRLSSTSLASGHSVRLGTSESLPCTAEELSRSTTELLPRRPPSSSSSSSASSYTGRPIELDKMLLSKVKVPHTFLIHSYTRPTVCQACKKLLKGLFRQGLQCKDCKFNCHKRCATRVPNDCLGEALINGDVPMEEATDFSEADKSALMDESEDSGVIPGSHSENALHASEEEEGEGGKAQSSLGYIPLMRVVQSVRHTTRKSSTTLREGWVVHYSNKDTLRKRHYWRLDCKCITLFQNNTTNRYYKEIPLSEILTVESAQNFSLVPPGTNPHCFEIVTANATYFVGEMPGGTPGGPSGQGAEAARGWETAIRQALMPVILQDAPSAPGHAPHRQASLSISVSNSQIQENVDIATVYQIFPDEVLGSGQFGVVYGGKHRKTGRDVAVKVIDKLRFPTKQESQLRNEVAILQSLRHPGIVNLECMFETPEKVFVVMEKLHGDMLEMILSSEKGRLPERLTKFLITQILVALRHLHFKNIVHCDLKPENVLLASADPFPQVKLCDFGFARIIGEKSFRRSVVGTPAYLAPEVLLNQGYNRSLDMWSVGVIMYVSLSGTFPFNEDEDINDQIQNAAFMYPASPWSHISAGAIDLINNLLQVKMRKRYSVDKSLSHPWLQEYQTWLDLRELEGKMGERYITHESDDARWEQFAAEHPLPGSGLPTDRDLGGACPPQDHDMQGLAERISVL
Method in brief: as §1

[6] = target: T6, scanMAX Kinase assay panel (Homo sapiens, UniProt Q02763); conditions: TIE2; 1 uM; read-out: Percent Control (%)
T6 construct: purchased DiscoverX
Method in brief: as §1

[7] = target: T7, scanMAX Kinase assay panel (Homo sapiens, UniProt O00750); conditions: PIK3C2B; 1 uM; read-out: Percent Control (%)
T7 construct: purchased DiscoverX
Method in brief: as §1

[8] = target: T8, scanMAX Kinase assay panel (Homo sapiens, UniProt Q8N752); conditions: CSNK1A1L; 1 uM; read-out: Percent Control (%)
T8 construct: purchased DiscoverX
T8 sequence (Q8N752 1-337): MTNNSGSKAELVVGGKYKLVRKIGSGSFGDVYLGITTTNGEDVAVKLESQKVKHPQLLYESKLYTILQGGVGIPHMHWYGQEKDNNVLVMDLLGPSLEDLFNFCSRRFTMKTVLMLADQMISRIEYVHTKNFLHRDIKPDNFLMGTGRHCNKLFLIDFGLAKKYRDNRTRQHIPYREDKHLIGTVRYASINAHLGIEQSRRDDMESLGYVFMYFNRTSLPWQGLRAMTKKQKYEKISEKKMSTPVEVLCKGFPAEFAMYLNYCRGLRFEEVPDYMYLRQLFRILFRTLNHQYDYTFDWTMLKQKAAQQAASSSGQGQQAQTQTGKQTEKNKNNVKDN
Method in brief: as §1

[9] = target: T9, scanMAX Kinase assay panel (Homo sapiens, UniProt Q9Y3S1); conditions: WNK2; 1 uM; read-out: Percent Control (%)
T9 construct: purchased DiscoverX
Method in brief: as §1

[10] = target: T10, scanMAX Kinase assay panel (Homo sapiens, UniProt Q04912); conditions: MST1R; 1 uM; read-out: Percent Control (%)
T10 construct: purchased DiscoverX
Method in brief: as §1

T6 sequence (Q02763 23-1124): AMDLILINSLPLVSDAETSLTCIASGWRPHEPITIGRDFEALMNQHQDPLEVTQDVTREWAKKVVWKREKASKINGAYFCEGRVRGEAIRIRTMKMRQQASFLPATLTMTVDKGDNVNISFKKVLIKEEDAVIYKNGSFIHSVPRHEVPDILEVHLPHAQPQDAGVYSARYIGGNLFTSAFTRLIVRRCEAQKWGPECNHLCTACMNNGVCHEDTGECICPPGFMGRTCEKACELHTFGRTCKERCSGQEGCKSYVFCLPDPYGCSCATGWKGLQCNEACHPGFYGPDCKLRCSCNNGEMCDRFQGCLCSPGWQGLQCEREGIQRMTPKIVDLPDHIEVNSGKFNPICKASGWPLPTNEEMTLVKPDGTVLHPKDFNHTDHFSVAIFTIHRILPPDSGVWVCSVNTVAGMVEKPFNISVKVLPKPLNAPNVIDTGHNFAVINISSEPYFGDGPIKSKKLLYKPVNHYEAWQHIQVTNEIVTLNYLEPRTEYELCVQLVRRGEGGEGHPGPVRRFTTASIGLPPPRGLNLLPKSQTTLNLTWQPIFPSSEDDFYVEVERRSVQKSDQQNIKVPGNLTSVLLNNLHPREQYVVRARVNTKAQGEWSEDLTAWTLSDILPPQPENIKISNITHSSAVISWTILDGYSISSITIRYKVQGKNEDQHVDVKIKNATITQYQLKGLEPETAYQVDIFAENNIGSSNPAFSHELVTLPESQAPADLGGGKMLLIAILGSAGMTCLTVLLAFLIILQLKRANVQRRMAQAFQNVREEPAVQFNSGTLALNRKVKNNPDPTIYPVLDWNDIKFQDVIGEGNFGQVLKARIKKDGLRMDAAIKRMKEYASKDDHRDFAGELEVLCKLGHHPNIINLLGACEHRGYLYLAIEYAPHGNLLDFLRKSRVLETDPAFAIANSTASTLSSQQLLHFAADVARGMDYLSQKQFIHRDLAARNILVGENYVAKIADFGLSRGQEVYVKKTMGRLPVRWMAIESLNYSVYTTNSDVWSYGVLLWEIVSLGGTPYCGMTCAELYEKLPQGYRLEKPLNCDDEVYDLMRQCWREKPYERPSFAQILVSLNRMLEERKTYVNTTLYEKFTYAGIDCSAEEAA
T2 sequence (Q9Y2H9 whole entry): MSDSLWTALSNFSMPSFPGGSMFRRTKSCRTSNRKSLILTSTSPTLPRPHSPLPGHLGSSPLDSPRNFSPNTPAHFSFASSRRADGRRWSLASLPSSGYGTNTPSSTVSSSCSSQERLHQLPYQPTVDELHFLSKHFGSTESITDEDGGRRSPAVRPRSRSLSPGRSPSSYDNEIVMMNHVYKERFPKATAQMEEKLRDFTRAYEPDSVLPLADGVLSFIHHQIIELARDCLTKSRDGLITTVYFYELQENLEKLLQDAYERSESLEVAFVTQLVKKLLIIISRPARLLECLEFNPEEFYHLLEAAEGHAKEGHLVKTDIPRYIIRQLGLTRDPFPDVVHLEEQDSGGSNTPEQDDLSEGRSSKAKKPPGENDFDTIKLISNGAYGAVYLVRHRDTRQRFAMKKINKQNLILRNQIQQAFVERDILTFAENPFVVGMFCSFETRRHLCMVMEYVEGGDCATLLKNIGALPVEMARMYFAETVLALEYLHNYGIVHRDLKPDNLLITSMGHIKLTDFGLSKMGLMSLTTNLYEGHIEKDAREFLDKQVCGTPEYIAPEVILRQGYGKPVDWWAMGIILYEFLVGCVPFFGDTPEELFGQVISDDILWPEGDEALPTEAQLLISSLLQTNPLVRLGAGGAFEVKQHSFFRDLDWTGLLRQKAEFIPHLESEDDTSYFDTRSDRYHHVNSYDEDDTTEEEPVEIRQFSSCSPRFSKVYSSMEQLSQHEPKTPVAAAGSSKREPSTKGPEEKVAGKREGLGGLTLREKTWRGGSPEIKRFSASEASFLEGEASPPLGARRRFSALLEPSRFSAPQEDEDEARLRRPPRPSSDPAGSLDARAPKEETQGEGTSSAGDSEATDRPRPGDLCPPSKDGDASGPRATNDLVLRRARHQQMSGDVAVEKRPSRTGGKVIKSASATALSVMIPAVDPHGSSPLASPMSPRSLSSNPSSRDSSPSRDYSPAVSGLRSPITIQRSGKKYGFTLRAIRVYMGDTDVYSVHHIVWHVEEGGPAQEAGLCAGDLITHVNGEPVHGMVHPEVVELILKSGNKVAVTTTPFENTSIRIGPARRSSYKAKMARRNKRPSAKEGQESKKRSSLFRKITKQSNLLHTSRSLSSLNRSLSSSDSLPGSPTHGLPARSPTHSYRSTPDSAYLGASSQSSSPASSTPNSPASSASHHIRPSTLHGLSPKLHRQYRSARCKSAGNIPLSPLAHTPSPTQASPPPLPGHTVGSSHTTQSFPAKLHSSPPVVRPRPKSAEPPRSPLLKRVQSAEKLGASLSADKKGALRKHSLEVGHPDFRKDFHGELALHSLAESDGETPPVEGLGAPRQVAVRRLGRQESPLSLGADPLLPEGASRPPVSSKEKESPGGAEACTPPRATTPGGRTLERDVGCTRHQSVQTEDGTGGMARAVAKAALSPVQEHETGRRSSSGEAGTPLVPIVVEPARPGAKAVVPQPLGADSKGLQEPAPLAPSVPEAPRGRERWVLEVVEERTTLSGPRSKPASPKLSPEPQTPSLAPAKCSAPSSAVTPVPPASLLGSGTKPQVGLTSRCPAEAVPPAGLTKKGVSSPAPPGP
T10 sequence (Q04912 25-1400): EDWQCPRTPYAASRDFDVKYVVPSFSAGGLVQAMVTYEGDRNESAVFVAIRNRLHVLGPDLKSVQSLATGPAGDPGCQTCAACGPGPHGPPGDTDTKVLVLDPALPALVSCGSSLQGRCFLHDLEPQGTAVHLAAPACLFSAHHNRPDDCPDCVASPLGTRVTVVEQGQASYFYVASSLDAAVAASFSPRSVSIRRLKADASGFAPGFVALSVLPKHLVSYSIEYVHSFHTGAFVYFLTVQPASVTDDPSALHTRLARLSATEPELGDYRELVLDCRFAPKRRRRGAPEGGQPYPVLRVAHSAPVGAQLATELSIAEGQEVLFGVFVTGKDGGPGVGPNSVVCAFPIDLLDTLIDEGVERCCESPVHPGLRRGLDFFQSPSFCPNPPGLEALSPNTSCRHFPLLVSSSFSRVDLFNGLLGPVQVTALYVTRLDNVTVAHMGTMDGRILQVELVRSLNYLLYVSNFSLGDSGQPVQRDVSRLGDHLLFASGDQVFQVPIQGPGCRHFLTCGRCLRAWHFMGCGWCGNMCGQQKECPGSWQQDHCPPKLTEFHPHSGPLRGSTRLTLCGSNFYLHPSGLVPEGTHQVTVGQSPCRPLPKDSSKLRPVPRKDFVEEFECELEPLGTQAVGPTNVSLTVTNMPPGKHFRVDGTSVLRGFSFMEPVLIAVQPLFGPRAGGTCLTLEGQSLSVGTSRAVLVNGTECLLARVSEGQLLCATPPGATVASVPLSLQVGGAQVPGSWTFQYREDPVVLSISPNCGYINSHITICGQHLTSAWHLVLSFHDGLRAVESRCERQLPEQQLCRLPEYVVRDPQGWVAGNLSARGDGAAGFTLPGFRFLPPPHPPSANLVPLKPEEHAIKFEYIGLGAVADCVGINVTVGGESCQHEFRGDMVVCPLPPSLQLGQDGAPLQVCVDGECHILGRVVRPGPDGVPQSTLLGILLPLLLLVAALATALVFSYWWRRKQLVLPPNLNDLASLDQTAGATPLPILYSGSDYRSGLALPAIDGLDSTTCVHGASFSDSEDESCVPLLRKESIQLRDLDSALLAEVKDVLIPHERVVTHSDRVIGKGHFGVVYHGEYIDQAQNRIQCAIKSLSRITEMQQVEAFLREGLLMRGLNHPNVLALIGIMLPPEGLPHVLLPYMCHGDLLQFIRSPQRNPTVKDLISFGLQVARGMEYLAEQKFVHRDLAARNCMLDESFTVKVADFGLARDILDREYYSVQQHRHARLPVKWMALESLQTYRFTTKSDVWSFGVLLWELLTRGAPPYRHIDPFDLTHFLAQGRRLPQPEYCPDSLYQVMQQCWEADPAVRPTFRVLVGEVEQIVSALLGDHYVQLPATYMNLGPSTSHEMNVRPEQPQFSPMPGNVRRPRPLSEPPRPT
T4 sequence (P68400 whole entry): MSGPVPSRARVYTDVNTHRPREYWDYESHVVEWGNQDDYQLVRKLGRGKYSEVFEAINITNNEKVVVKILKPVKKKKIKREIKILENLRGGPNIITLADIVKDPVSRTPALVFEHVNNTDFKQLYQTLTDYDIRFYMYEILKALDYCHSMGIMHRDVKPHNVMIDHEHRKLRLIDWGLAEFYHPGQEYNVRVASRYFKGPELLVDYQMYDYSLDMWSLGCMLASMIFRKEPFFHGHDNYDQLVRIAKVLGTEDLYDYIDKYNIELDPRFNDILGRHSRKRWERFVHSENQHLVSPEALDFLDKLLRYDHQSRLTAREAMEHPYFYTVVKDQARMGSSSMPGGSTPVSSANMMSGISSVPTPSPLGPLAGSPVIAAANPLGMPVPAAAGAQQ

| Compound | remaining binding at 1 µM [1] [%] | remaining binding at 1 µM [2] [%] | remaining binding at 1 µM [3] [%] | remaining binding at 1 µM [4] [%] | remaining binding at 1 µM [5] [%] | remaining binding at 1 µM [6] [%] | remaining binding at 1 µM [7] [%] | remaining binding at 1 µM [8] [%] | remaining binding at 1 µM [9] [%] | remaining binding at 1 µM [10] [%] |
| --- | --- | --- | --- | --- | --- | --- | --- | --- | --- | --- |
| Cc1ccc(C(=O)Nc2ccc(CN3CCN(C)CC3)c(C(F)(F)F)c2)cc1C#Cc1cnc2c(Nc3cnn(C)c3)cccn12 [Example 1, 4-methyl-3-((8-((1-methyl-1H-pyrazol-4-yl)amino)imidazo[1,2-a]pyridin-3-yl)ethynyl)-N-(4-((4-methylpiperazin-1-yl)methyl)-3-(trifluoromethyl)phenyl)benzamide] | 27 | 81 | 94 | 83 | 41 | 0 | 100 | 93 | 82 | 32 |
| Cc1cn(-c2cc(NC(=O)c3ccc(C)c(C#Cc4cnc5c(Nc6cnn(C)c6)cccn45)c3)cc(C(F)(F)F)c2)cn1 [Example 12, 4-methyl-N-(3-(4-methyl-1H-imidazol-1-yl)-5-(trifluoromethyl)phenyl)-3-((8-((1-methyl-1H-pyrazol-4-yl)amino)imidazo[1,2-a]pyridin-3-yl)ethynyl)benzamide] | 100 | 56 | 86 | 100 | 98 | 0 | 91 | 70 | 100 | 87 |
| Cc1ccc(NC(=O)C2(C(=O)Nc3ccc(F)cc3)CC2)cc1C#Cc1cnc2c(Nc3cnn(C(C)C)c3)cccn12 [Example 78] | 100 | 82 | 100 | 100 | 95 | 16 | 100 | 100 | 100 | 97 |
